Measured values from patent publication US20230131966A1, “FUNGICIDAL AMIDES” (FMC Corporation, priority 2020, published 2023).

How the values were obtained:
Format in all cases: in vivo
[1] = tested on: Erysiphe graminis f. sp. tritici; test: Test G: wheat powdery mildew control on wheat seedlings; conditions: for Test G disease control rating (100 = 100% disease control, 0 = no disease control): rate 250 ppm, relative to the controls
Phakopsora pachyrhizi = test: Test A: Asian soybean rust control on soybean seedlings; conditions: for Test A disease control rating (100 = 100% disease control, 0 = no disease control): rate 250 ppm, relative to the controls
Plasmopara viticola = test: Test D: grape downy mildew control on grape seedlings; conditions: for Test D disease control rating: 250 ppm, 100 = 100% disease control, 0 = no control; for Test D disease control rating (100 = 100% disease control, 0 = no disease control): rate 250 ppm, relative to the controls
Zymoseptoria tritici = test: Test C: wheat leaf blotch control on wheat seedlings; conditions: for Test C disease control rating (100 = 100% disease control, 0 = no disease control): rate 250 ppm, relative to the controls
[2] = tested on: Puccinia recondita f. sp. tritici; test: Test B: wheat leaf rust control on wheat seedlings; conditions: for Test B disease control rating (100 = 100% disease control, 0 = no disease control): rate 250 ppm, relative to the controls
Phytophthora infestans = test: whole plant or invertebrate; conditions: tomato seedlings; for Test F disease control rating: 250 ppm, 100 = 100% disease control, 0 = no control; for Test F disease control rating (100 = 100% disease control, 0 = no disease control): rate 250 ppm, relative to the controls
Botrytis cinerea = test: Test E: tomato Botrytis control on tomato seedlings; conditions: for Test E disease control rating (100 = 100% disease control, 0 = no disease control): rate 250 ppm, relative to the controls
[3] = 250 ppm, 100 = 100% disease control, 0 = no control
[4] = 250 ppm, soybean seedlings, 100 = 100% disease control, 0 = no control
[5] = 250 ppm, wheat seedlings, 100 = 100% disease control, 0 = no control

Row | SMILES | Test G disease control rating [1, 3] [%] | Test A disease control rating (Phakopsora pachyrhizi; [4]) [%] | Test D disease control rating (Plasmopara viticola) [%] | Test C disease control rating (Zymoseptoria tritici; [5]) [%] | Test B disease control rating [2, 5] [%] | Test F disease control rating (Phytophthora infestans) [%] | Test E disease control rating (Botrytis cinerea; [3]) [%] | Test G disease control rating (100 = 100% disease control, 0 = no disease control) [1] [%] | Test A disease control rating (100 = 100% disease control, 0 = no disease control) (Phakopsora pachyrhizi) [%] | Test D disease control rating (100 = 100% disease control, 0 = no disease control) (Plasmopara viticola) [%] | Test C disease control rating (100 = 100% disease control, 0 = no disease control) (Zymoseptoria tritici) [%] | Test B disease control rating (100 = 100% disease control, 0 = no disease control) [2] [%] | Test F disease control rating (100 = 100% disease control, 0 = no disease control) (Phytophthora infestans) [%] | Test E disease control rating (100 = 100% disease control, 0 = no disease control) (Botrytis cinerea) [%] | pest or weed control at 250 ppm ([1]; Blumeria graminis, 250 ppm, 100 = 100% disease control, 0 = no control, read-out: Test G disease control rating) [%] | pest or weed control at 250 ppm (Phakopsora pachyrhizi; Phakopsora pachyrhizi, 250 ppm, soybean seedlings, 100 = 100% disease control, 0 = no control, read-out: Test A disease control rating) [%] | pest or weed control at 250 ppm (Zymoseptoria tritici; Zymoseptoria tritici, 250 ppm, wheat seedlings, 100 = 100% disease control, 0 = no control, read-out: Test C disease control rating) [%] | pest or weed control at 250 ppm ([2]; Puccinia recondita, 250 ppm, wheat seedlings, 100 = 100% disease control, 0 = no control, read-out: Test B disease control rating) [%] | pest or weed control at 250 ppm (Botrytis cinerea; Botrytis cinerea, 250 ppm, 100 = 100% disease control, 0 = no control, read-out: Test E disease control rating) [%]
1 | COc1ccnc(C(=O)N[C@@H](C)C(=O)OC(C)c2ccc(C3CCCCC3)cc2)c1OCOC(C)=O (single isomer, unassigned) [Compound 146] | 60 | 73 | 31 | 91 | 91 | 0 | 0 |  |  |  |  |  |  |  |  |  |  |  | 
2 | COc1ccnc(C(=O)N[C@@H](C)C(=O)OC(C)c2ccc(C3CCCCC3)cc2)c1OCOC(C)=O (single isomer, unassigned) [Compound 147] | 94 | 100 | 38 | 95 | 99 | 71 | 0 |  |  |  |  |  |  |  |  |  |  |  | 
3 | CCC(OC(=O)[C@H](C)NC(=O)c1nccc(OC)c1O)C1CCCCC1 (single isomer, unassigned) [Compound 167] | 0 | 100 | 41 | 90 | 100 | 0 | 0 |  |  |  |  |  |  |  |  |  |  |  | 
4 | CCC(OC(=O)[C@H](C)NC(=O)c1nccc(OC)c1OC(C)=O)C1CCCCC1 (single isomer, unassigned) [Compound 168] | 0 | 100 | 31 | 99 | 100 | 0 | 0 |  |  |  |  |  |  |  |  |  |  |  | 
5 | CCC(OC(=O)[C@H](C)NC(=O)c1nccc(OC)c1OC(C)=O)C1CCCCC1 (single isomer, unassigned) [Compound 169] | 35 | 100 | 17 | 83 | 41 | 0 | 0 |  |  |  |  |  |  |  |  |  |  |  | 
6 | CCC(OC(=O)[C@H](C)NC(=O)c1nccc(OC)c1OCOC(=O)C(C)C)C1CCCCC1 (single isomer, unassigned) [Compound 170] | 0 | 100 | 32 | 100 | 100 | 0 | 0 |  |  |  |  |  |  |  |  |  |  |  | 
7 | CCC(OC(=O)[C@H](C)NC(=O)c1nccc(OC)c1O)C1CCCCC1 (single isomer, unassigned) [Compound 182] | 0 | 100 | 15 | 45 | 0 | 0 | 0 |  |  |  |  |  |  |  |  |  |  |  | 
8 | COc1ccnc(C(=O)N[C@@H](C)C(=O)OC(C)C2CCCc3ccccc32)c1O (single isomer, unassigned) [Compound 183] | 0 | 100 | 44 | 98 | 99 | 0 | 0 |  |  |  |  |  |  |  |  |  |  |  | 
9 | COc1ccnc(C(=O)N[C@@H](C)C(=O)OC(C)C2CCCc3ccccc32)c1O (single isomer, unassigned) [Compound 184] | 0 | 100 | 64 | 100 | 99 | 0 | 0 |  |  |  |  |  |  |  |  |  |  |  | 
10 | CCC(OC(=O)[C@H](C)NC(=O)c1nccc(OC)c1OCOC(=O)C(C)C)C1CCCCC1 (single isomer, unassigned) [Compound 188] |  |  |  |  |  |  |  | 0 | 100 | 43 | 27 | 68 | 0 | 0 |  |  |  |  | 
11 | CCC(OC(=O)[C@H](C)NC(=O)c1nccc(OC)c1OCOC(C)=O)C1CCCCC1 (single isomer, unassigned) [Compound 189] |  |  |  |  |  |  |  | 26 | 100 | 46 | 98 | 100 | 0 | 0 |  |  |  |  | 
12 | CCC(OC(=O)[C@H](C)NC(=O)c1nccc(OC)c1OCOC(C)=O)C1CCCCC1 (single isomer, unassigned) [Compound 190] |  |  |  |  |  |  |  | 0 | 100 | 43 | 46 | 74 | 0 | 0 |  |  |  |  | 
13 | COc1ccnc2c(=O)n([C@@H](C)C(=O)OC(C)c3ccc(C4CCCCC4)cc3)c(=O)oc12 (single isomer, unassigned) [Compound 194] |  |  |  |  |  |  |  | 0 | 87 | 18 | 37 | 68 | 0 | 0 |  |  |  |  | 
14 | COc1ccnc2c(=O)n([C@@H](C)C(=O)OC(C)c3ccc(C4CCCCC4)cc3)c(=O)oc12 (single isomer, unassigned) [Compound 195] |  |  |  |  |  |  |  | 0 | 100 | 17 | 83 | 99 | 0 | 0 |  |  |  |  | 
15 | COc1cccc(C(=O)NC(C)C(=O)OC(C)c2ccccc2Cc2ccccc2)c1O (centres unmarked) [Compound 5] | 0 | 0 | 73 | 0 | 0 | 39 | 0 |  |  |  |  |  |  |  |  |  |  |  | 
16 | COc1cccc(C(=O)NC(C)C(=O)OC(C)c2ccccc2Cc2ccccc2)c1O (centres unmarked) [Compound 6] |  |  | 28 |  |  | 0 |  |  |  |  |  |  |  |  | 0 | 0 | 0 | 0 | 0
17 | COc1ccnc(C(=O)N[C@@H](C)C(=O)OC(C2CCCCC2)C2CCCCC2)c1O [Compound 45] | 0 | 100 | 43 | 39 | 0 | 9 | 0 |  |  |  |  |  |  |  |  |  |  |  | 
18 | COc1ccnc(C(=O)N[C@@H](C)C(=O)OC(C2CCCCC2)C2CCCCC2)c1OC(C)=O [Compound 46] | 91 | 100 | 22 | 68 | 68 | 0 | 0 |  |  |  |  |  |  |  |  |  |  |  | 
19 | COc1ccnc(C(=O)N[C@@H](C)C(=O)OC(C)c2ccc(-n3ccc(C(F)(F)F)n3)cc2Cc2ccccc2)c1O (some centres unmarked) [Compound 93] | 0 | 99 | 0 | 72 | 74 | 0 | 0 |  |  |  |  |  |  |  |  |  |  |  | 
20 | COc1ccnc(C(=O)N[C@@H](C)C(=O)OC(C)c2ccc(-n3ccc(C(F)(F)F)n3)cc2Cc2ccccc2)c1OC(C)=O (some centres unmarked) [Compound 94] | 0 | 38 | 10 | 82 | 92 | 0 | 0 |  |  |  |  |  |  |  |  |  |  |  | 
